The supplement of paper PMC11451515

Key:
Conditions in all cases: 48 h
[1] = tested on: NOMO1; experiment: cell viability relative to DMSO control; higher = less cytotoxic
In short: (§1)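 Viability, reported as a per-plate percentage of DMSO wells with cell-free wells as background, came from CellTiter-Glo One luminescence. Reading took place after 48 h at 37°C. Before that, NOMO1 or SEM (500 cells/well) or P12-Ichikawa (1000 cells/well) leukemia cells, adapted for at least four passages in each medium, were seeded in 1536-well plates (5 μl) and pin-dosed with library compounds in DMSO, 47 μM to 0.79 nM over 11 threefold points.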

[2] = tested on: SEM cells; experiment: as above
In short: as §1

[3] = tested on: P12-Ichikawa; experiment: as above
In short: as §1

[4] = tested on: NOMO1; experiment: AUC of viability dose-response curve (% viability x log10 dose units); higher = less sensitive
In short: (§2)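 Library compounds in DMSO were applied for 48 h at 37°C at 11 threefold doses (47 μM to 0.79 nM) to medium-adapted leukemia cells in 1536-well plates holding 500 or 1000 cells/well. Luminescence from CellTiter-Glo One was normalised plate by plate against DMSO and cell-free wells. Area under the curve came from trapezoidal integration of a log-logistic fit, after scaling curves that rose above full viability and discarding those that failed quality control. The fit had four parameters and used log10 doses.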

[5] = tested on: SEM cells; experiment: as above
In short: as §2

[6] = tested on: P12-Ichikawa; experiment: as above
In short: as §2

COc1ccc(C(=O)c2c(C)n(CCN3CCOCC3)c3ccccc23)cc1
cell viability [%]
Conditions | [1] | [2] | [3]
HPLM + 10% dialyzed FBS, 0.000781 µM | 87.4 | 83.5 | 94.2
HPLM + 10% dialyzed FBS, 0.00234 µM | 99.9 | 93.6 | 104
HPLM + 10% dialyzed FBS, 0.00702 µM | 98.1 | 93.3 | 101
HPLM + 10% dialyzed FBS, 0.0211 µM | 108 | 102 | 95.2
HPLM + 10% dialyzed FBS, 0.0632 µM | 107 | 99.8 | 106
HPLM + 10% dialyzed FBS, 0.19 µM | 129 | 105 | 111
HPLM + 10% dialyzed FBS, 0.569 µM | 107 | 84.3 | 103
HPLM + 10% dialyzed FBS, 1.71 µM | 104 | 108 | 109
HPLM + 10% dialyzed FBS, 5.12 µM | 95.2 | 104 | 98.3
HPLM + 10% dialyzed FBS, 15.4 µM | 90.2 | 108 | 111
HPLM + 10% dialyzed FBS, 46.1 µM | 87.6 | 103 | 111
RPMI 5 mM glucose + 10% FBS, 0.000781 µM | 91.7 | 74.4 | 89.3
RPMI 5 mM glucose + 10% FBS, 0.00234 µM | 92.5 | 89 | 91.1
RPMI 5 mM glucose + 10% FBS, 0.00702 µM | 94.4 | 88.5 | 95
RPMI 5 mM glucose + 10% FBS, 0.0211 µM | 91.7 | 88.3 | 100
RPMI 5 mM glucose + 10% FBS, 0.0632 µM | 85.4 | 91.5 | 97.5
RPMI 5 mM glucose + 10% FBS, 0.19 µM | 99.6 | 93.2 | 96.7
RPMI 5 mM glucose + 10% FBS, 0.569 µM | 82.9 | 77.9 | 101
RPMI 5 mM glucose + 10% FBS, 1.71 µM | 97.1 | 85.2 | 113
RPMI 5 mM glucose + 10% FBS, 5.12 µM | 95.7 | 87.5 | 84.4
RPMI 5 mM glucose + 10% FBS, 15.4 µM | 88.6 | 72.8 | 110
RPMI 5 mM glucose + 10% FBS, 46.1 µM | 93.7 | 66.5 | 98.9
RPMI 5 mM glucose + 10% dialyzed FBS, 0.000781 µM | 87.1 | 95.6 | 96.5
RPMI 5 mM glucose + 10% dialyzed FBS, 0.00234 µM | 84.2 | 88.3 | 93.2
RPMI 5 mM glucose + 10% dialyzed FBS, 0.00702 µM | 92.5 | 97.9 | 99.4
RPMI 5 mM glucose + 10% dialyzed FBS, 0.0211 µM | 88.5 | 93.5 | 98.2
RPMI 5 mM glucose + 10% dialyzed FBS, 0.0632 µM | 104 | 97.2 | 99.3
RPMI 5 mM glucose + 10% dialyzed FBS, 0.19 µM | 76.9 | 97.4 | 102
RPMI 5 mM glucose + 10% dialyzed FBS, 0.569 µM | 98.9 | 96.1 | 98.4
RPMI 5 mM glucose + 10% dialyzed FBS, 1.71 µM | 92 | 83.8 | 93.8
RPMI 5 mM glucose + 10% dialyzed FBS, 5.12 µM | 87.9 | 102 | 104
RPMI 5 mM glucose + 10% dialyzed FBS, 15.4 µM | 86.6 | 92.1 | 112
RPMI 5 mM glucose + 10% dialyzed FBS, 46.1 µM | 92 | 87.8 | 109

AUC of viability dose-response curve
Conditions | [4] | [5] | [6]
HPLM + 10% dialyzed FBS | 466 | 459 | 456
RPMI 5 mM glucose + 10% FBS | 439 | 400 | 463
RPMI 5 mM glucose + 10% dialyzed FBS | 430 | 449 | 434

CC[C@@H]1[C@@H](C)O[C@@](O)([C@@H](C)[C@H](O)[C@H](C)[C@H]2OC(=O)/C=C/C=C/[C@H](C)[C@@H]([C@@H](C)[C@@H](O)[C@H](C)[C@@]3(O)C[C@@H](O[C@H]4C[C@H](O)[C@H](O)[C@H](C)O4)[C@H](CC)[C@@H](C)O3)OC(=O)/C=C/C=C/[C@@H]2C)C[C@H]1O[C@H]1C[C@H](O)[C@H](O)[C@H](C)O1
cell viability [%]
Conditions | [1] | [2] | [3]
HPLM + 10% dialyzed FBS, 0.000781 µM | – | 98.9 | –
HPLM + 10% dialyzed FBS, 0.00234 µM | – | 114 | –
HPLM + 10% dialyzed FBS, 0.00702 µM | – | 115 | –
HPLM + 10% dialyzed FBS, 0.0211 µM | – | 104 | –
HPLM + 10% dialyzed FBS, 0.0632 µM | – | 130 | –
HPLM + 10% dialyzed FBS, 0.19 µM | – | 113 | –
HPLM + 10% dialyzed FBS, 0.569 µM | – | 105 | –
HPLM + 10% dialyzed FBS, 1.71 µM | – | 101 | –
HPLM + 10% dialyzed FBS, 5.12 µM | – | 6.3 | –
HPLM + 10% dialyzed FBS, 15.4 µM | – | 29.3 | –
HPLM + 10% dialyzed FBS, 46.1 µM | – | 5.37 | –
RPMI 5 mM glucose + 10% FBS, 0.000781 µM | 111 | 113 | –
RPMI 5 mM glucose + 10% FBS, 0.00234 µM | 117 | 106 | –
RPMI 5 mM glucose + 10% FBS, 0.00702 µM | 129 | 125 | –
RPMI 5 mM glucose + 10% FBS, 0.0211 µM | 121 | 101 | –
RPMI 5 mM glucose + 10% FBS, 0.0632 µM | 118 | 109 | –
RPMI 5 mM glucose + 10% FBS, 0.19 µM | 132 | 114 | –
RPMI 5 mM glucose + 10% FBS, 0.569 µM | 128 | 101 | –
RPMI 5 mM glucose + 10% FBS, 1.71 µM | 121 | 88.9 | –
RPMI 5 mM glucose + 10% FBS, 5.12 µM | 6.11 | 7.21 | –
RPMI 5 mM glucose + 10% FBS, 15.4 µM | 17.5 | 11.6 | –
RPMI 5 mM glucose + 10% FBS, 46.1 µM | 2.97 | 4.01 | –
RPMI 5 mM glucose + 10% dialyzed FBS, 0.000781 µM | – | 112 | 117
RPMI 5 mM glucose + 10% dialyzed FBS, 0.00234 µM | – | 121 | 121
RPMI 5 mM glucose + 10% dialyzed FBS, 0.00702 µM | – | 108 | 115
RPMI 5 mM glucose + 10% dialyzed FBS, 0.0211 µM | – | 118 | 131
RPMI 5 mM glucose + 10% dialyzed FBS, 0.0632 µM | – | 113 | 126
RPMI 5 mM glucose + 10% dialyzed FBS, 0.19 µM | – | 128 | 127
RPMI 5 mM glucose + 10% dialyzed FBS, 0.569 µM | – | 92.3 | 142
RPMI 5 mM glucose + 10% dialyzed FBS, 1.71 µM | – | 77.1 | 139
RPMI 5 mM glucose + 10% dialyzed FBS, 5.12 µM | – | 7.23 | 7.66
RPMI 5 mM glucose + 10% dialyzed FBS, 15.4 µM | – | 19 | 60.8
RPMI 5 mM glucose + 10% dialyzed FBS, 46.1 µM | – | 4.96 | 2.82

AUC of viability dose-response curve
Conditions | [4] | [5] | [6]
HPLM + 10% dialyzed FBS | 370 | 368 | 374
RPMI 5 mM glucose + 10% FBS | 366 | 357 | 403
RPMI 5 mM glucose + 10% dialyzed FBS | 372 | 351 | 380

O=C(/C=C/c1ccc(CN(CCO)CCc2c[nH]c3ccccc23)cc1)NO
AUC of viability dose-response curve
Conditions | [4] | [5] | [6]
HPLM + 10% dialyzed FBS | 296 | 262 | 275
RPMI 5 mM glucose + 10% FBS | 295 | 261 | 271
RPMI 5 mM glucose + 10% dialyzed FBS | 303 | 269 | 277

O=C(N[C@@H](c1ccccc1)[C@@H]1CCCCN1)c1cccc(C(F)(F)F)c1Cl
AUC of viability dose-response curve
Conditions | [4] | [5] | [6]
HPLM + 10% dialyzed FBS | 444 | 461 | 465
RPMI 5 mM glucose + 10% FBS | 462 | 450 | 465
RPMI 5 mM glucose + 10% dialyzed FBS | 408 | 407 | 464

C=C1/C(=C/C=C2\CCCC3(C)[C@@H]([C@H](C)/C=C/C=C/C(O)(CC)CC)CC[C@@H]23)C[C@@H](O)C[C@@H]1O (some centres undefined)
AUC of viability dose-response curve
Conditions | [4] | [5] | [6]
HPLM + 10% dialyzed FBS | 437 | 463 | 463
RPMI 5 mM glucose + 10% FBS | 422 | 460 | 451
RPMI 5 mM glucose + 10% dialyzed FBS | 445 | 448 | 455

CC(C)(O)[C@H]1CC[C@@](C)([C@H]2[C@@H](O)C[C@@]3(C)[C@@H]4C[C@H](O[C@@H]5O[C@H](CO)[C@@H](O)[C@H](O)[C@H]5O)[C@H]5C(C)(C)[C@@H](O[C@@H]6OC[C@@H](O)[C@H](O)[C@H]6O)CC[C@@]56C[C@@]46CC[C@]23C)O1
cell viability [%], [2]
Conditions | HPLM + 10% dialyzed FBS | RPMI 5 mM glucose + 10% FBS
0.000781 µM | 118 | 119
0.00234 µM | 118 | 123
0.00702 µM | 121 | 133
0.0211 µM | 124 | 120
0.0632 µM | 128 | 124
0.19 µM | 126 | 123
0.569 µM | 129 | 130
1.71 µM | 117 | 121
5.12 µM | 89.2 | 108
15.4 µM | 109 | 105
46.1 µM | 106 | 128

AUC of viability dose-response curve
Conditions | [4] | [5] | [6]
HPLM + 10% dialyzed FBS | 464 | 454 | 456
RPMI 5 mM glucose + 10% FBS | 446 | 465 | 451
RPMI 5 mM glucose + 10% dialyzed FBS | 449 | 466 | 450

COc1ccc(COc2cc3oc(=O)c4cc(C(C)O)ccc4c3cc2OC)cc1 (centres undefined)
AUC of viability dose-response curve
Conditions | [4] | [5] | [6]
HPLM + 10% dialyzed FBS | 446 | 451 | 457
RPMI 5 mM glucose + 10% FBS | 449 | 450 | 444
RPMI 5 mM glucose + 10% dialyzed FBS | 455 | 461 | 434
